# Legend:
# [1] = molecular target: T1, Hb (Homo sapiens, UniProt P68871+P69905); test: Whole blood assay: oxygen equilibrium curves (Hemox Analyzer), change in O2 affinity of Hb; format: cell-based; conditions: whole blood incubated 1 h at 37° C., equimolar ratio of hemoglobin to compound; sodium salts of 2B (Enantiomer 1), 4B, 5B used
# T1 construct: from tissue
# Method: Oxygen equilibrium curves (OECs) were collected using a TCS Hemox Analyzer (TCS Scientific Company, New Hope, PA, USA) to measure changes in the binding affinity of O2 to Hb. Whole blood was incubated for 1 h at 37° C. with the indicated compounds in an equimolar ratio of hemoglobin to compound and diluted into TES (2-[[1,3-dihydroxy-2-(hydroxymethyl)propan-2-yl]amino]ethanesulfonic acid)/saline buffer prior to measurements. The diluted samples were then oxygenated with compressed air within the Hemox Analyzer and the OECs were collected during deoxygenation as previously described (Guarnone et al., Haematologica, 1995, 80, 426-430). p 50 (partial pressure of 02 at which Hb is 50% saturated with 02) values were obtained using a non-linear regression analysis. Percentage change in p 50 [Δp50(%)]was calculated as follows: Δp50(%)=[(p 50 of control)-p 50 with compound)/p 50 control]x 100. The sodium salts of compounds 2B (Enantiomer 1), 4B, and 5B described above were used.
# [2] = Rat PK, oral gavage; format: in vivo; conditions: fasted male Sprague-Dawley rats, oral gavage 2 mg/kg and/or 10 mg/kg, sodium salt of 5B used; for T1/2: blood; for half-life: male, Sprague-Dawley, rat, whole blood, po
# Method: A group of fasted male Sprague-Dawley rats were dosed via oral gavage at 2 mg/kg and/or 10 mg/kg with test articles formulated in 0.5% methylcellulose suspension with 0.01% polysorbate 80 in PBS (phosphate buffered saline). Blood samples were collected through jugular vein at pre-selected time points. Blood samples were prepared by protein precipitation with ACN, vortexed and then centrifuged before supernatants were transferred for bioanalysis. Test article concentrations were measured by HPLC-MS-MS. Pharmacokinetic parameters were calculated using non-compartment analysis. The T1/2 was calculated via a linear regression of the terminal phase of the blood-time concentration profile.
# Results for various compounds disclosed herein (sodium salt of compound 5B described above was used) and select reference compounds (Compound A and Compound B) are summarized in Table 5A and Table 5B.
# T1 sequence (P69905 2-142 limits assumed): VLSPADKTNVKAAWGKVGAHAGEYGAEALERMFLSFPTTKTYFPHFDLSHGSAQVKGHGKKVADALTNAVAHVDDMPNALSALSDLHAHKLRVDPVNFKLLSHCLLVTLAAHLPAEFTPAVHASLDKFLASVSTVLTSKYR
# T1 sequence (P68871 2-147 limits assumed): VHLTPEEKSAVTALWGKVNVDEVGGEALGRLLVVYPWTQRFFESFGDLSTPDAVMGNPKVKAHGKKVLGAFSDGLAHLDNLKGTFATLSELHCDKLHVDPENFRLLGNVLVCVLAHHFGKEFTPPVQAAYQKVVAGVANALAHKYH
SMILES,Delta-p50 (%) [1] [%],T1/2 [2] [h],half-life [2] [days]
"O=Cc1c(O)cccc1OCC1CSCCN1C(=O)c1cccnc1CC(=O)O (single isomer, unassigned) [Compound 2B (Enantiomer 1), 2-{3-[3-[(2-formyl-3-hydroxyphenoxy)methyl]thiomorpholine-4-carbonyl]pyridin-2-yl} acetic acid]",10.72,,
"O=Cc1c(O)cccc1OCC1CSCCN1C(=O)c1ccccc1C(=O)O (single isomer, unassigned) [Compound 5A (Enantiomer 1), 2-(3-((2-formyl-3-hydroxyphenoxy)methyl)thiomorpholine-4-carbonyl) benzoic acid]",11.04,213,
"O=Cc1c(O)cccc1OCC1CSCCN1C(=O)c1ccccc1C(=O)O (single isomer, unassigned) [Compound 5A (Enantiomer 2), 2-(3-((2-formyl-3-hydroxyphenoxy)methyl)thiomorpholine-4-carbonyl)benzoic acid]",19.57,13,
"O=Cc1c(O)cccc1OCC1CSCCN1C(=O)c1cccnc1C(=O)O (single isomer, unassigned) [Compound 6B (Enantiomer 1), 3-[3-[(2-formyl-3-hydroxyphenoxy)methyl]thiomorpholine-4-carbonyl]pyridine-2-carboxylic acid]",14.15,,
"O=Cc1c(O)cccc1OC[C@@H]1CCCCN1C(=O)c1ccccc1C(=O)O [Compound 1A, 2-[(2S)-2-[(2-formyl-3-hydroxyphenoxy)methyl]piperidine-1-carbonyl]benzoic acid]",66.43,,4.58
"O=Cc1c(O)cccc1OC[C@@H]1CCCCN1C(=O)c1cccnc1C(=O)O [Compound 1B, 3-[(2S)-2-[(2-formyl-3-hydroxyphenoxy)methyl]piperidine-1-carbonyl]pyridine-2-carboxylic acid]",0.4,,0.489
"O=Cc1c(O)cccc1OC[C@@H]1COCCN1C(=O)c1ccccc1C(=O)O [Compound 2A, 2-[(3S)-3-[(2-formyl-3-hydroxyphenoxy)methyl]morpholine-4-carbonyl]benzoic acid]",4.19,,
"O=Cc1c(O)cccc1OC[C@@H]1COCCN1C(=O)c1ccccc1CC(=O)O [Compound 3A, 2-{2-[(3S)-3-[(2-formyl-3-hydroxyphenoxy)methyl]morpholine-4-carbonyl]phenyl}acetic acid]",11.72,,
"O=Cc1c(O)cccc1OC[C@@H]1COCCN1C(=O)c1cccnc1C(=O)O [Compound 3B, 3-[(3S)-3-[(2-formyl-3-hydroxyphenoxy)methyl]morpholine-4-carbonyl]pyridine-2-carboxylic acid]",0.65,,
"O=Cc1c(O)cccc1OC[C@@H]1CCCCN1C(=O)c1ccccc1CC(=O)O [Compound 4A, 2-{2-[(2S)-2-[(2-formyl-3-hydroxyphenoxy)methyl]piperidine-1-carbonyl]phenyl} acetic acid]",63.6,,3.72
"O=Cc1c(O)cccc1OC[C@@H]1COCCN1C(=O)c1cccnc1CC(=O)O [Compound 4B, 2-{3-[(3S)-3-[(2-formyl-3-hydroxyphenoxy)methyl]morpholine-4-carbonyl]pyridin-2-yl} acetic acid]",−8.28,,
"O=Cc1c(O)cccc1OC[C@@H]1CCCCN1C(=O)c1cccnc1CC(=O)O [Compound 5B, (S)-2-(3-(2-((2-formyl-3-hydroxyphenoxy)methyl)piperidine-1-carbonyl)pyridin-2-yl)acetic acid]",−3.32,,5
"O=Cc1c(O)cccc1OCC1CSCCN1C(=O)c1ccccc1CC(=O)O (stereo not drawn) [Compound 6A, 2-(2-{3-[(2-formyl-3-hydroxyphenoxy)methyl]thiomorpholine-4-carbonyl}phenyl)acetic acid]",5.09,,
"O=Cc1c(O)cccc1OC[C@@H]1CCCCN1C(=O)c1ccccc1CCC(=O)O [Compound 7A, 3-{2-[(2S)-2-[(2-formyl-3-hydroxyphenoxy)methyl]piperidine-1-carbonyl]phenyl}propanoic acid]",77.13,,2.17
"O=Cc1c(O)cccc1OC[C@@H]1COCCN1C(=O)c1ccccc1CCC(=O)O [Compound 8A, 3-{2-[(3S)-3-[(2-formyl-3-hydroxyphenoxy)methyl]morpholine-4-carbonyl]phenyl} propanoic acid]",55.01,,4.25
"O=Cc1c(O)cccc1OC[C@@H]1CSCCN1C(=O)c1ccccc1CCC(=O)O [Compound 9A, 3-{2-[(3R)-3-[(2-formyl-3-hydroxyphenoxy)methyl]thiomorpholine-4-carbonyl]phenyl}propanoic acid]",46.78,,3.7
"O=Cc1c(O)cccc1OC[C@@H]1CCCCN1C(=O)c1ccccc1 [Reference Compound A, reference compound]",,,1.08
"O=Cc1c(O)cccc1OC[C@@H]1COCCN1C(=O)c1ccccc1 [Reference Compound B, reference compound]",,,1.24

# Source: patent US12649719B2, “Modulators of hemoglobin” (Global Blood Therapeutics, Inc., priority 2020, dated 2026)
